According to publication PMC8617031, “Development of a BCL-xL and BCL-2 dual degrader with improved anti-leukemic activity,” (Nature Communications, 2021):
Several values for one entry are separate records, joined by “and”; a condition that tells them apart may be missing. Equal values may be shown once.

What was measured:
[1] = tested on: BCL-2/PROTAC/VCB ternary complex (HiBit-BCL-2, HaloTag-VHL); assay: NanoBRET intracellular ternary complex formation in 293T cells, BCL-2; format: cell-based, human; details: for NanoBRET signal (610/450 ratio, background-subtracted), Ave, Bcl-2: Ave of Read1 and Read2, per replicate well; for NanoBRET signal (610/450 ratio, background-subtracted), Read1, Bcl-2 / NanoBRET signal (610/450 ratio, background-subtracted), Read2, Bcl-2: individual replicate wells
Source text: (§1) Plasmids HaloTag-VHL (Cat. No. CS1679C155) and CMV HiBit (Cat. No. CS1956B03) were purchased from Promega. HiBit-BCL-xL and HiBit-BCL-2 were constructed previously. The two mutants (HiBit-BCL-xL-K157-only and HiBit-BCL-xL-K-ko) were constructed through Gibson assembly method. The primer pair (5′-[…]-3′ and 5′-[…]c[…]-3′) and the template Flag-BCL-xL-K157-only or Flag-BCL-xL-K-ko (pDL2129)[2] were used to clone the BCL-xL-K157-only-containing and BCL-xL-K-ko-containing fragments, respectively. The primer pair (5′-[…]g[…]-3′ and 5′-[…]-3′) and pBit3.1-N (Cat. No. N2361, Promega) were used to clone the vector-containing fragment. The PCR fragments were assembled using NEBuilder® HiFi DNA Assembly Master Mix (Cat. No. E2621, NEB, Ipswich, MA, USA). DNA sequences in all these plasmids were authenticated by automatic sequencing. […] After 24 h, 2 × 10^4 transfected cells were seeded into white 96-well tissue culture plates in Gibco™ Opti-MEM™ I Reduced Serum Medium, No Phenol Red (Cat. No. 11-058-021, Fisher) containing 4% FBS with or without HaloTag NanoBRET 618 Ligand (Cat. No. PRN1662, Promega) and incubated overnight at 37 °C, 5% CO2. The following day, serial diluted compounds were added into the medium and plates were incubated at 37 °C, 5% CO2, for 6 h. After treatment, NanoBRET Nano-Glo Substrate (cat. no. N1662, Promega) was added into the medium, and the contents were mixed by shaking the plate for 30 s before measuring donor and acceptor signals on Biotek plate reader. Dual-filtered luminescence was collected with a 450/50 nm bandpass filter (donor, NanoBiT-BCL-XL protein or NanoBiT-BCL-2 protein) and a 610-nm longpass filter (acceptor, HaloTag NanoBRET ligand) using an integration time of 0.5 s. mBRET ratios were calculated following the NanoBRET™ Nano-Glo® Detection System (Cat. No. N1662, Promega).

[2] = tested on: BCL-xL/PROTAC/VCB ternary complex (HiBit-BCL-xL, HaloTag-VHL); assay: NanoBRET intracellular ternary complex formation in 293T cells, BCL-xL; format: cell-based, human; details: for NanoBRET signal (610/450 ratio, background-subtracted), Ave, Bcl-xl: Ave of Read1 and Read2, per replicate well; for NanoBRET signal (610/450 ratio, background-subtracted), Read1, Bcl-xl / NanoBRET signal (610/450 ratio, background-subtracted), Read2, Bcl-xl: individual replicate wells
Source text: as §1

Compound | NanoBRET signal (610/450 ratio, background-subtracted), Ave, Bcl-2 ([1]; 0.333 uM) | NanoBRET signal (610/450 ratio, background-subtracted), Read1, Bcl-2 ([1]; 0.333 uM) | NanoBRET signal (610/450 ratio, background-subtracted), Read2, Bcl-2 ([1]; 0.333 uM) | NanoBRET signal (610/450 ratio, background-subtracted), Ave, Bcl-2 ([1]; 1 uM) | NanoBRET signal (610/450 ratio, background-subtracted), Read1, Bcl-2 ([1]; 1 uM) | NanoBRET signal (610/450 ratio, background-subtracted), Read2, Bcl-2 ([1]; 1 uM) | NanoBRET signal (610/450 ratio, background-subtracted), Ave, Bcl-2 ([1]; 3 uM) | NanoBRET signal (610/450 ratio, background-subtracted), Read1, Bcl-2 ([1]; 3 uM) | NanoBRET signal (610/450 ratio, background-subtracted), Read2, Bcl-2 ([1]; 3 uM) | NanoBRET signal (610/450 ratio, background-subtracted), Ave, Bcl-xl ([2]; 0.333 uM) | NanoBRET signal (610/450 ratio, background-subtracted), Read1, Bcl-xl ([2]; 0.333 uM) | NanoBRET signal (610/450 ratio, background-subtracted), Read2, Bcl-xl ([2]; 0.333 uM) | NanoBRET signal (610/450 ratio, background-subtracted), Ave, Bcl-xl ([2]; 1 uM) | NanoBRET signal (610/450 ratio, background-subtracted), Read1, Bcl-xl ([2]; 1 uM) | NanoBRET signal (610/450 ratio, background-subtracted), Read2, Bcl-xl ([2]; 1 uM) | NanoBRET signal (610/450 ratio, background-subtracted), Ave, Bcl-xl ([2]; 3 uM) | NanoBRET signal (610/450 ratio, background-subtracted), Read1, Bcl-xl ([2]; 3 uM) | NanoBRET signal (610/450 ratio, background-subtracted), Read2, Bcl-xl ([2]; 3 uM)
Cc1ncsc1-c1ccc(C(C)NC(=O)C2CC(O)CN2C(=O)C(NC(=O)CCCCCCCC(=O)N2CCN(CC3(C)CCC(c4ccc(Cl)cc4)=C(CN4CCN(c5ccc(C(=O)NS(=O)(=O)c6ccc(NC(CCN7CCOCC7)CSc7ccccc7)c(S(=O)(=O)C(F)(F)F)c6)cc5)CC4)C3)CC2)C(C)(C)C)cc1 (mixture of isomers) [319-C9] | 5.707 and 5.966 and 5.739 | 6.091 and 5.602 and 5.911 | 5.322 and 6.329 and 5.568 | 8.164 and 7.003 and 7.361 | 7.94 and 7.065 and 7.5271 | 8.387 and 6.941 and 7.196 | 7.788 and 8.559 and 8.325 | 7.715 and 8.321 and 8.876 | 7.862 and 8.797 and 7.774 | 7.303 and 5.548 and 6.719 | 7.675 and 6.0029 and 7.554 | 6.932 and 5.093 and 5.885 | 6.725 and 7.112 | 7.559 and 11.4906 and 7.902 | 5.8908 and 9.929 and 6.321 | 8.449 and 8.436 and 7.804 | 8.506 and 8.886 and 8.744 | 8.392 and 7.986 and 6.863
Cc1ncsc1-c1ccc(C(C)NC(=O)C2CC(O)CN2C(=O)C(NC(=O)CCCCCCCCC(=O)N2CCN(CC3(C)CCC(c4ccc(Cl)cc4)=C(CN4CCN(c5ccc(C(=O)NS(=O)(=O)c6ccc(NC(CCN7CCOCC7)CSc7ccccc7)c(S(=O)(=O)C(F)(F)F)c6)cc5)CC4)C3)CC2)C(C)(C)C)cc1 (mixture of isomers) [319-C10] | 5.28 and 5.803 and 5.204 | 5.21 and 6.342 and 5.353 | 5.35 and 5.263 and 5.054 | 6.3574 and 6.177 and 5.647 | 6.493 and 6.555 and 5.614 | 6.221 and 5.799 and 5.68 | 5.897 and 6.959 and 6.718 | 5.772 and 7.082 and 6.87 | 6.022 and 6.837 and 6.566 | 7.322 and 6.232 and 5.134 | 7.3 and 6.35 and 5.398 | 7.344 and 6.1137 and 4.87 | 7.385 and 6.082 and 6.14 | 7.049 and 5.821 and 5.916 | 7.722 and 6.342 and 6.364 | 5.435 and 6.539 and 6.402 | 5.79 and 7.0778 and 5.898 | 5.08 and 6.001 and 6.906
